{"source": "patent US7579432B2", "about": "“Cyclic peptides as G-protein-coupled receptor antagonists” (Promics Pty Limited, priority 2001, dated 2009)", "key": {"[1]": {"test_system": "antigen-induced arthritis", "experiment": "Rat monoarticular antigen-induced arthritis", "format": "in vivo", "procedure": "Female Wistar rats (150-250 g) were obtained from the Central Animal Breeding House, University of Queensland. […] Each rat received a subcutaneous injection of this suspension (0.5 mL) on days 1 and 7. On day 12-28, rats were separated into separate cages, and body weight and food and water intake monitored daily. Rats received either ordinary tap water or drinking water containing AcF-[OPdChaWR] (1). […] Rats were euthanased on day 28, and whole blood collected into an Eppendorf tube and allowed to clot on ice. Blood samples were centrifuges (11,000 rpm×3 min) and serum collected and stored at −20° C. until analysis of serum cytokines using an ELISA. Each knee capsule was lavaged with 100 μL saline, and the total cell count determined using a haemocytometer. In addition, an aliquot of the knee joint lavage fluid was dropped onto a glass slide, and allowed to air dry. Once dry, cells were stained with a differential stain (Diff Quick) and a differential cell count was performed using a 40× dry lens microscope. The remaining lavage fluids from each joint were stored at −20° C. until later analysis of intra-articular cytokine levels using an ELISA. Each knee joint was removed and the skin was split with a scalpel blade to allow fixation. Knee samples were stored in 10% buffered formalin for≧10 d. Knees were then rinsed with distilled water and placed in a saturated solution of EDTA solution for 21 d for decalcification before being embedded in paraffin wax. Knee tissue samples were prepared using standard histological techniques as described above in Example 6 and stained using an heamotoxylin and eosin stain. Histological slides were analysed in a blinded fashion. […] In no samples was there evidence of significant bone erosion. Samples of serum and synovial fluid were thawed on the day of ELISA analysis for TNFα and IL-6 levels. Concentrations were determined from a standard curve, using an ELISA as described previously in Example 6."}, "[2]": {"test_system": "C5a-induced neutropenia", "experiment": "C5a-induced neutropenia after topical administration", "format": "in vivo", "conditions": "topical 10 mg/per rat in 50% propylene glycol and 50% distilled H2O; C5a 2 μg/kg i.v.", "procedure": "Female Wistar rats weighing between 200-250 g were used for in vivo testing of all C5a receptor antagonists. Rats were anaesthetized using the procedure described above, and transferred on to a heating pad to ensure that body temperature was maintained throughout the experiment. A catheter was inserted in the femoral vein, secured with a suture and flushed with 100 μL of heparinised saline. Rats were dosed with either the antagonist or vehicle, intravenously (1 mg kg^−1 in 200 μL saline containing 10% ethanol, 10 min prior to LPS challenge) or topically ([…] challenge) Rats were infused i.v via the femoral catheter with either LPS (1 mg kg^−1 i.v in 100 μL saline), recombinant human C5a (2 μgkg^−1 in 100 μL), or vehicle control 10 minutes after the iv administration or 60 min after topical administration, of antagonist or vehicle control. All agents infused i.v were injected over a 2 min period, and were followed with a subsequent injection of 100 μL of saline to ensure complete delivery of the drug.\nWhole blood samples (0.1 mL) were collected from the tail vein at the time of drug and LPS or C5a administration. […] The number of PMNs was counted on a haemocytometer. The number of cells at each time point was calculated as a percentage of the total number of cells at time zero, prior to complement challenge or LPS. […]"}}}
{"smiles": "CC(=O)N[C@@H](Cc1ccccc1)C(=O)N[C@H]1CCCNC(=O)[C@H](CCCNC(=N)N)NC(=O)[C@H](Cc2c[nH]c3ccccc23)NC(=O)[C@@H](CC2CCCCC2)NC(=O)[C@@H]2CCCN2C1=O", "note": "[Compound 1, Ac-Phe-[Orn-Pro-dCha-Trp-Arg]]", "values": [{"measurement": "arthritic right knee joint swelling", "setting": "[1]; given orally on Days −2 to +14", "value": "inhibition"}, {"measurement": "right knee joint IL-6 levels in joint lavage", "setting": "[1]; oral", "value": "inhibition"}, {"measurement": "right knee joint TNF-α levels in joint lavage", "setting": "[1]; oral", "value": "inhibition"}, {"measurement": "neutropaenic effects of i.v. C5a", "setting": "[2]", "value": "prevent the neutropaenic effects of C5a"}]}
